# Experiments:
# Assay in all cases: relative viability (nuclei count vs DMSO), 5 days (fraction); higher = more cells survive
# BAM7 + Foretinib = compound: CCOC1=CC=CC=C1N=NC2=C(NN(C2=O)C3=NC(=CS3)C4=CC=CC=C4)C [BAM7] + COc1cc2c(Oc3ccc(NC(=O)C4(C(=O)Nc5ccc(F)cc5)CC4)cc3F)ccnc2cc1OCCCN1CCOCC1 [Foretinib] (partner 0.25 µM)
# Outline: (§1)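 Five library-drug doses in √10 steps were combined with a fixed anchor-drug dose, or a single drug was given alone, by pin tool to lung cancer cell lines in 1536-well plates the day after seeding. Nuclei were stained and counted after 5 days. Relative viability is the nuclei count in treated wells over that in vehicle wells, taken as the median of duplicate plates.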
# BAM7 + Pictilisib = compound: CCOC1=CC=CC=C1N=NC2=C(NN(C2=O)C3=NC(=CS3)C4=CC=CC=C4)C [BAM7] + CS(=O)(=O)N1CCN(Cc2cc3nc(-c4cccc5[nH]ncc45)nc(N4CCOCC4)c3s2)CC1 [Pictilisib] (partner 1 µM)
# Outline: as §1
# [1] = compound: CCn1c(-c2nonc2N)nc2c(C#CC(C)(C)O)ncc(OC[C@H]3CCCNC3)c21 + Cc1cc(Nc2cc(N3CCN(C)CC3)nc(Sc3ccc(NC(=O)C4CC4)cc3)n2)n[nH]1 [Tozasertib] (partner 0.1 µM)
# Outline: as §1
# [2] = compound: CCn1c(-c2nonc2N)nc2c(C#CC(C)(C)O)ncc(OC[C@H]3CCCNC3)c21 + O=C(c1cc(Cc2n[nH]c(=O)c3ccccc23)ccc1F)N1CCN(C(=O)C2CC2)CC1 [Olaparib] (partner 8 µM)
# Outline: as §1
Cell Line,relative viability (BAM7 + Foretinib; first compound 0.5 µM),relative viability (BAM7 + Foretinib; first compound 5 µM),relative viability (BAM7 + Foretinib; first compound 15.81 µM),relative viability (BAM7 + Foretinib; first compound 50 µM),relative viability (BAM7 + Pictilisib; first compound 0.5 µM),relative viability (BAM7 + Pictilisib; first compound 5 µM),relative viability (BAM7 + Pictilisib; first compound 15.81 µM),relative viability (BAM7 + Pictilisib; first compound 50 µM),relative viability ([1]; first compound 0.01 µM),relative viability ([1]; first compound 0.03162 µM),relative viability ([1]; first compound 0.1 µM),relative viability ([1]; first compound 0.3162 µM),relative viability ([1]; first compound 1 µM),relative viability ([2]; first compound 0.01 µM),relative viability ([2]; first compound 0.03162 µM),relative viability ([2]; first compound 0.1 µM),relative viability ([2]; first compound 0.3162 µM),relative viability ([2]; first compound 1 µM)
NCI-H3122,0.838,0.856,0.916,0.866,0.75,0.689,0.685,0.694,0.369,0.405,0.396,0.369,0.337,0.591,0.62,0.632,0.559,0.609
NCI-H1975,0.77,0.801,0.718,0.829,0.29,0.259,–,0.283,0.768,0.715,0.757,0.777,0.658,0.745,0.809,0.837,0.784,0.757
NCI-H1944,0.79,0.905,0.767,0.888,0.344,0.384,0.332,0.346,0.287,0.247,0.266,0.236,0.249,0.393,0.418,0.4,0.41,0.407
LU99A,0.787,0.888,0.828,0.843,0.32,0.315,0.398,0.353,0.296,0.268,0.296,0.308,0.315,0.282,0.312,0.251,0.258,0.288
SW 1573,0.939,0.997,1.04,0.966,0.583,0.48,0.457,0.483,0.175,0.179,0.178,0.201,0.14,0.553,0.39,0.477,0.399,0.364
NCI-H2347,1.23,0.918,0.969,0.981,0.639,0.746,0.598,0.913,0.6,0.59,–,0.613,0.583,0.567,0.512,0.6,0.608,0.549
NCI-H2009,1.28,1.33,1.26,1.21,0.899,0.827,0.846,0.854,0.72,0.811,0.724,0.668,0.771,0.655,0.673,0.682,0.685,0.75
HCC-15,1,1.04,0.982,1,0.818,0.802,0.764,0.747,0.393,0.439,0.338,0.427,0.384,0.691,0.735,0.803,0.672,0.628
HCC-44,–,–,–,–,0.593,0.65,0.534,0.634,–,–,1.08,0.79,1.08,0.995,1.02,0.977,0.955,0.994
COR-L23,0.891,1.01,0.897,0.981,0.832,0.855,0.743,0.872,0.202,0.19,0.235,0.188,0.18,0.329,0.429,0.357,0.379,0.376
HCC-78,0.566,0.516,0.564,0.58,0.178,0.177,0.213,0.245,0.391,0.414,0.36,0.41,0.405,0.739,0.732,0.827,0.794,0.564
NCI-H1299,1.07,1.18,1.08,1.11,0.675,0.779,0.782,0.824,–,–,–,–,–,0.954,0.965,0.936,0.995,0.984
NCI-H727,0.851,1.19,0.864,0.801,0.414,0.545,0.387,0.31,0.605,0.662,0.643,0.693,0.575,0.801,0.668,0.751,0.805,0.869
NCI-H1648,–,–,–,–,–,–,–,–,–,0.527,0.466,0.444,0.574,0.937,0.851,0.767,0.604,0.567
NCI-H1563,0.898,0.82,0.868,0.963,0.651,0.714,0.642,0.639,–,–,–,–,–,–,–,–,–,–
A549,1,1.1,0.93,0.989,0.566,0.507,0.483,0.508,–,–,–,–,–,0.407,0.351,0.318,0.301,0.257
NCI-H522,–,–,–,–,–,–,–,–,0.56,0.55,0.52,0.517,0.564,0.622,0.779,0.724,0.628,0.581
NCI-H1623,0.905,0.831,0.689,0.786,–,–,–,–,0.433,0.468,0.446,0.404,0.492,–,–,–,–,–
SW 900,0.933,0.755,0.774,0.863,–,–,–,–,0.626,0.747,0.646,0.561,0.579,0.871,0.853,0.742,0.88,0.864
IA-LM,1.36,1.2,1.03,1.21,0.356,0.306,0.37,0.392,–,–,–,–,–,0.942,0.791,0.937,1.3,0.786
EBC-1,0.0974,0.103,0.0984,0.102,0.359,0.375,0.328,0.307,–,–,–,–,–,0.652,0.706,0.676,0.516,0.557
